Patent US8623324B2, “Luminescent dyes with a water-soluble intramolecular bridge and their biological conjugates” (AAT Bioquest Inc., priority 2010, dated 2014)

Test system: goat anti-rabbit IgG (GAR)
Experiment: Protein precipitation / water solubility of dye-protein conjugates at high dye/protein ratio
Format: physicochemical
From the text: FIG. 1. […] Their PBS solutions are adjusted to have the same absorption of OD=0.05 at 600 nm. The PBS solutions are excited at 600 nm, and the emissions are scanned from 620 to 800 nm.
FIG. 2. […] Their PBS solutions are adjusted to have the same absorption of OD=0.05 at 600 nm. The PBS solutions are excited at 600 nm, and the emissions are scanned from 620 to 800 nm.
FIG. 3. […] Their PBS solutions are adjusted to have the same absorption of OD=0.1 at 450 nm. The PBS solutions are excited at 460 nm, and the emissions are scanned from 470 to 650 nm.
The typical method for protein conjugation with succinimidyl esters of the invention is as follows. Variations in ratios of dye to protein, protein concentration, time, temperature, buffer composition and other variables that are well known in the art are possible that still yield useful conjugates. A solution of the protein is prepared at about 10 mg/mL in 0.1M sodium bicarbonate. The labeling reagents are dissolved in a suitable solvent such as DMF or DMSO at about 10 mg/mL. Water is a suitable solvent for many dyes of the invention. Predetermined amounts of the labeling reagents are added to the protein solutions with stiffing. A molar ratio of 10 equivalents of dye to 1 equivalent of protein is typical, though the optimal amount varies with the particular labeling reagent, the protein being labeled and the protein's concentration, and is determined empirically.

[1] = ratio of dye/protein larger than 8
[2] = ratio of dye/protein larger than 10

Row | Structure (SMILES) | protein precipitation / water solubility of dye-protein conjugate [1] | protein precipitation / water solubility of dye-protein conjugate [2]
1 | CC12CCCCCC(=O)NCCCCCNC(=O)C(CS(=O)(=O)O)NC(=O)C(CS(=O)(=O)O)NC(=O)C(CS(=O)(=O)O)NC(=O)CCCCCC3(C)/C(=C/C=C/C=C/C1=[N+](CCCCCC(=O)ON1C(=O)CCC1=O)c1ccc(S(=O)(=O)O)cc12)N(CCCCCC(=O)ON1C(=O)CCC1=O)c1ccc(S(=O)(=O)O)cc13 (stereo not shown) [Compound 39] | still water soluble | 
2 | CC1(C)C2=[N+](CCCCCC(=O)NC(C(=O)NCCCCCC(=O)ON3C(=O)CCC3=O)CCCCNC(=O)CCCCCC3(C)/C(=C/C=C/C=C/2)N(CCCS(=O)(=O)O)c2ccc(S(=O)(=O)O)cc23)c2ccc(S(=O)(=O)[O-])cc21 (stereo not shown) [Compound 133] |  | causes protein to precipitate
3 | CC1(C)C2=[N+](CCCCCC(=O)NC(Cc3ccc(S(=O)(=O)O)s3)C(=O)NCCCCC(C(=O)NCCCCCC(=O)ON3C(=O)CCC3=O)NC(=O)C(Cc3ccc(S(=O)(=O)[O-])s3)NC(=O)CCCCCC3(C)/C(=C/C=C/C=C/2)N(CCCS(=O)(=O)O)c2ccc(S(=O)(=O)O)cc23)c2ccc(S(=O)(=O)O)cc21 (stereo not shown) [Compound 134] |  | still water soluble
4 | CC12CCCCCC(=O)NCCCCCCCCCCCCNC(=O)CCCCCC3(C)/C(=C/C=C/C=C/C1=[N+](CCCCCC(=O)ON1C(=O)CCC1=O)c1ccc(S(=O)(=O)O)cc12)N(CCCCCC(=O)ON1C(=O)CCC1=O)c1ccc(S(=O)(=O)O)cc13 (stereo not shown) [Compound 136] | causes protein to precipitate | 
